Counter-ions that a name gives are not always drawn.
Columns and labels:
[1] = molecular target: T1, human A2a adenosine receptor (Homo sapiens, UniProt P29274); assay: Ligand Binding Assay for Adenosine A2a Receptor (A2A-B); details: HEK293 plasma membrane, radioligand [3H]CGS21680
T1 construct: purchased PerkinElmer RB-HA2a; host or cells: HEK293
Protocol: Ligand Binding Assay for Adenosine A2a Receptor
Ligand binding assay of adenosine A2a receptor was performed using plasma membrane of HEK293 cells containing human A2a adenosine receptor (PerkinElmer, RB-HA2a) and radioligand [^3H]CGS21680 (PerkinElmer, NET 1021). Assay was set up in 96-well polypropylene plate in total volume of 200 μL by sequentially adding 20 μL 1:20 diluted membrane, 130 μL assay buffer (50 mM Tris.HCl, pH7.4 10 mM MgCl2, 1 mM EDTA) containing [^3H] CGS21680, 50 μL diluted compound (4×) or vehicle control in assay buffer. Nonspecific binding was determined by […] NECA. Reaction was carried out at room temperature for 2 hours before filtering through 96-well GF/C filter plate pre-soaked in 50 mM Tris.HCl, pH7.4 containing 0.3% polyethylenimine. Plates were then washed 5 times with cold 50 mM Tris.HCl, pH7.4, dried and sealed at the bottom. Microscintillation fluid 30 μL was added to each well and the top sealed. Plates were counted on Packard Topcount for [^3H]. Data was analyzed in Microsoft Excel and GraphPad Prism programs. (Varani, K.; Gessi, S.; Dalpiaz, A.; Borea, P. A. British Journal of Pharmacology, 1996, 117, 1693)

[2] = molecular target: T2, human adenosine A1 receptor (Homo sapiens, UniProt P30542); assay: Adenosine A1 Receptor Functional Assay (A1GAL2); assay type: cell-based; details: CHO-K1 cells, cAMP inducible beta-galactosidase reporter, 4 nM r-PIA/1 uM Forskolin challenge
T2 construct: expressed in transfected cells; host or cells: CHO-K1
T2 sequence (P30542 1-326): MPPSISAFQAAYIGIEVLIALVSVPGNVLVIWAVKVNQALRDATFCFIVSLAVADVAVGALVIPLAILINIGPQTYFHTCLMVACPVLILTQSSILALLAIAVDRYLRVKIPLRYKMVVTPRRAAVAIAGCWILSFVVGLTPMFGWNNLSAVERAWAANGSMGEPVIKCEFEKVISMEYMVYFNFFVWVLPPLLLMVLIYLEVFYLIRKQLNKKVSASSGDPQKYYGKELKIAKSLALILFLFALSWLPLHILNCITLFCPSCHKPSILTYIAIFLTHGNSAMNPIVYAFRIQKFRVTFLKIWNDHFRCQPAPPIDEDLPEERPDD
Method in brief: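 CHO-K1 cells expressing the receptor with a cAMP-inducible β-galactosidase reporter were preincubated with compound (11-point curves) about 15 min at room temperature, then challenged with r-PIA (4 nM)/forskolin (1 µM) for 5.5–6 h at 37 °C. Lysates were read colorimetrically at 405 nm, and IC/EC50 was obtained by curve fitting.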

[3] = molecular target: T3, human adenosine A2a receptor (Homo sapiens, UniProt P29274); assay: Adenosine A2a Receptor Functional Assay (A2AGAL2); assay type: cell-based; details: CHO-K1 cells, cAMP inducible beta-galactosidase reporter, 15 nM NECA agonist challenge
T3 construct: expressed in transfected cells; host or cells: CHO-K1
Method in brief: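 Antagonist mode in CHO-K1 cells expressing human A2a with a cAMP-inducible β-galactosidase reporter (10K cells/well, cultured 2 days). 11-point compound curves preincubated ~15 min at room temperature in Ham's F-12/0.1% BSA, then 15 nM NECA challenge, 5.5–6 h at 37 °C. Colorimetric β-gal read at 405 nm; IC/EC50 fitted.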

T3 sequence (P29274 whole entry): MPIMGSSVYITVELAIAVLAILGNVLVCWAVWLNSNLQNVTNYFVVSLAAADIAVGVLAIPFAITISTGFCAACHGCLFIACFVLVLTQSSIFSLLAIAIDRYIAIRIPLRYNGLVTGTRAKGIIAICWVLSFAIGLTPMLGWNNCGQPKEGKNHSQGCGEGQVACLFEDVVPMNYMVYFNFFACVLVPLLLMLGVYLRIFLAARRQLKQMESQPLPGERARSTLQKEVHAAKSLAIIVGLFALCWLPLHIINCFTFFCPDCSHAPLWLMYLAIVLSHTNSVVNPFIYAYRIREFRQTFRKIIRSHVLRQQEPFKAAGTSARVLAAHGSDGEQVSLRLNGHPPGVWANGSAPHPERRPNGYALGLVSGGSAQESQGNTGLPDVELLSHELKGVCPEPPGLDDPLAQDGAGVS
T1 sequence (P29274 whole entry): as above

Row | Ki [1] | Ki [2] | Ki [3] | SMILES
1 | 8.2 nM | 878 nM | 11.5 nM | Nc1nc(-c2ccco2)nc2sc(CN3CC[C@@H](F)C3)cc12 [Example 54, 6-(3-Fluoro-pyrrolidin-1-ylmethyl)-2-furan-2-yl-thieno[2,3-d]pyrimidin-4-ylamine]
2 | 21 nM | 2230 nM | 48.7 nM | Nc1nc(-c2ccco2)nc2sc(CN3CCC(F)(F)CC3)cc12 [Example 56, 6-(4,4-Difluoro-piperidin-1-ylmethyl)-2-furan-2-yl-thieno[2,3-d]pyrimidin-4-ylamine]
3 | 8.4 nM | 294 nM | 6.62 nM | Nc1nc(-c2ccco2)nc2sc(CN3CCCC(F)(F)C3)cc12 [Example 57, 6-(3,3-Difluoro-piperidin-1-ylmethyl)-2-furan-2-yl-thieno[2,3-d]pyrimidin-4-ylamine]
4 | 384 nM | 1180 nM | 50.3 nM | N#Cc1cccc(-c2nc(N)c3cc(CN4CCCC(F)(F)C4)sc3n2)c1 [Example 62, 3-[4-Amino-6-(3,3-difluoro-piperidin-1-ylmethyl)-thieno[2,3-d]pyrimidin-2-yl]-benzonitrile]
5 | 150 nM | 1630 nM | 178 nM | N#Cc1ccc(-c2nc(N)c3cc(CN4CC=CCC4)sc3n2)cc1 [Example 63, 4-[4-Amino-6-(3,6-dihydro-2H-pyridin-1-ylmethyl)-thieno[2,3-d]pyrimidin-2-yl]-benzonitrile]
6 | 77 nM | 2070 nM | 83.5 nM | N#Cc1cccc(-c2nc(N)c3cc(CN4CC=CC4)sc3n2)c1 [Example 64, 3-[4-Amino-6-(2,5-dihydro-pyrrol-1-ylmethyl)-thieno[2,3-d]pyrimidin-2-yl]-benzonitrile]
7 | 41.8 nM | 129 nM | > 10000 nM | N#Cc1cccc(-c2nc(N)c3cc(CN4CCCC4)sc3n2)c1 [Example 65, 3-(4-Amino-6-pyrrolidin-1-ylmethyl-thieno[2,3-d]pyrimidin-2-yl)-benzonitrile]
8 | 378 nM | 212 nM | 13.3 nM | N#Cc1cccc(-c2nc(N)c3cc(CN4CC=CCC4)sc3n2)c1 [Example 68, 3-[4-Amino-6-(3,6-dihydro-2H-pyridin-1-ylmethyl)-thieno[2,3-d]pyrimidin-2-yl]-benzonitrile]
9 | 1020 nM | 3890 nM | 238 nM | Nc1nc(-c2cocn2)nc2sc(CN3CC=CC3)cc12 [Example 69, 6-(2,5-Dihydro-pyrrol-1-ylmethyl)-2-oxazol-4-yl-thieno[2,3-d]pyrimidin-4-ylamine]
10 | 393 nM | 2960 nM | 240 nM | Nc1nc(-c2cocn2)nc2sc(CN3CC=CCC3)cc12 [Example 70, 6-(3,6-Dihydro-2H-pyridin-1-ylmethyl)-2-oxazol-4-yl-thieno[2,3-d]pyrimidin-4-ylamine]
11 | 2020 nM | 5050 nM | 1030 nM | N#Cc1ccccc1-c1nc(N)c2cc(CN3CCC(F)CC3)sc2n1 [Example 73, 2-[4-Amino-6-(4-fluoro-piperidin-1-ylmethyl)-thieno[2,3-d]pyrimidin-2-yl]-benzonitrile]
12 | 93.2 nM | 1010 nM | 35.9 nM | N#Cc1cccc(-c2nc(N)c3cc(CN4CCOCC4)sc3n2)c1 [Example 74, 3-(4-Amino-6-morpholin-4-ylmethyl-thieno[2,3-d]pyrimidin-2-yl)-benzonitrile]
13 | 733 nM | 1600 nM | 634 nM | Cn1cccc1-c1nc(N)c2cc(CN3CCC(F)CC3)sc2n1 [Example 78, 6-(4-Fluoro-piperidin-1-ylmethyl)-2-(1-methyl-1H-pyrrol-2-yl)-thieno[2,3-d]pyrimidin-4-ylamine]
14 | 7410 nM | 4470 nM | 1040 nM | CC(C)c1ccccc1-c1nc(N)c2cc(CN3CCC(F)CC3)sc2n1 [Example 79, 6-(4-Fluoro-piperidin-1-ylmethyl)-2-(2-isopropyl-phenyl)-thieno[2,3-d]pyrimidin-4-ylamine]
15 | 184 nM | 1080 nM | 102 nM | COc1cccc(-c2nc(N)c3cc(CN4CC=CCC4)sc3n2)c1 [Example 80, 6-(3,6-Dihydro-2H-pyridin-1-ylmethyl)-2-(3-methoxy-phenyl)-thieno[2,3-d]pyrimidin-4-ylamine]
16 | 444 nM | 2950 nM | 53.8 nM | N#Cc1cccc(-c2nc(N)c3cc(CN4CCC(F)CC4)sc3n2)c1 [Example 82, 3-[4-Amino-6-(4-fluoro-piperidin-1-ylmethyl)-thieno[2,3-d]pyrimidin-2-yl]-benzonitrile]
17 | 281 nM | 1780 nM | 64.9 nM | N#Cc1cccc(-c2nc(N)c3cc(CN4CCSCC4)sc3n2)c1 [Example 83, 3-(4-Amino-6-thiomorpholin-4-ylmethyl-thieno[2,3-d]pyrimidin-2-yl)-benzonitrile]
18 | 659 nM | 2960 nM | 169 nM | COc1cccc(-c2nc(N)c3cc(CN4CCSCC4)sc3n2)c1 [Example 85, 2-(3-Methoxy-phenyl)-6-thiomorpholin-4-ylmethyl-thieno[2,3-d]pyrimidin-4-ylamine]
19 | 242 nM | 1810 nM | 97.5 nM | COc1cccc(-c2nc(N)c3cc(CN4CCCC(F)(F)C4)sc3n2)c1 [Example 86, 6-(3,3-Difluoro-piperidin-1-ylmethyl)-2-(3-methoxy-phenyl)-thieno[2,3-d]pyrimidin-4-ylamine]
20 | 76 nM | 2350 nM | 78.9 nM | N#Cc1ccc(-c2nc(N)c3cc(CN4CC=CC4)sc3n2)cc1 [Example 88, 4-[4-Amino-6-(2,5-dihydro-pyrrol-1-ylmethyl)-thieno[2,3-d]pyrimidin-2-yl]-benzonitrile]
21 | 1.9 nM | 1080 nM | 35.9 nM | Nc1nc(-c2ccc(Cl)o2)nc2sc(CN3CCC(F)CC3)cc12 [Example 89, 2-(5-Chloro-furan-2-yl)-6-(4-fluoro-piperidin-1-ylmethyl)-thieno[2,3-d]pyrimidin-4-ylamine hydrochloride]
22 | 3.7 nM | 712 nM | 22.3 nM | Nc1nc(-c2ccc(Cl)o2)nc2sc(CN3CCCC3)cc12 [Example 90, 2-(5-Chloro-furan-2-yl)-6-pyrrolidin-1-ylmethyl-thieno[2,3-d]pyrimidin-4-ylamine hydrochloride]
23 | 15 nM | 1030 nM | 121 nM | Nc1nc(-c2ccco2)nc2sc(CNC34CC5CC(CC(C5)C3)C4)cc12 [Example 91, 6-(Adamantan-1-ylaminomethyl)-2-furan-2-yl-thieno[2,3-d]pyrimidin-4-ylamine]
24 | 12 nM | 741 nM | 18.9 nM | Nc1nc(-c2ccco2)nc2sc(CN3CCC(F)CC3)cc12 [Example 92, 6-(4-Fluoro-piperidin-1-ylmethyl)-2-furan-2-yl-thieno[2,3-d]pyrimidin-4-ylamine Hydrochloride]
25 | 1.8 nM | 1420 nM | 33.2 nM | Nc1nc(-c2ccc(Cl)o2)nc2sc(CN3CCCCCC3)cc12 [Example 93, 6-Azepan-1-ylmethyl-2-(5-chloro-furan-2-yl)-thieno[2,3-d]pyrimidin-4-ylamine]
26 | 3.4 nM | 188 nM | 10.7 nM | Nc1nc(-c2ccc(Cl)o2)nc2sc(CN3CC=CCC3)cc12 [Example 95, 2-(5-Chloro-furan-2-yl)-6-(3,6-dihydro-2H-pyridin-1-ylmethyl)-thieno[2,3-d]pyrimidin-4-ylamine]
27 | 1620 nM | 3020 nM | 325 nM | Nc1nc(C2CC2)nc2sc(CN3CC=CCC3)cc12 [Example 96, 2-Cyclopropyl-6-(3,6-dihydro-2H-pyridin-1-ylmethyl)-thieno[2,3-d]pyrimidin-4-ylamine]

Row | SMILES | Ki [1] | Ki [2] | Ki [3]
28 | N#Cc1cccc(-c2nc(N)c3cc(CN4C5CCC4CC5)sc3n2)c1 [Example 77, 3-[4-Amino-6-(7-aza-bicyclo[2.2.1]hept-7-ylmethyl)-thieno[2,3-d]pyrimidin-2-yl]-benzonitrile] | 74.9 nM | 2170 nM | 95 nM
